In ChEMBL document CHEMBL3885861, “Open TG-GATES”:

Organism: Rattus norvegicus
Experiment: Open TG-GATES - Regimen: Single
Format: toxicity, organism-based, Sprague-Dawley
Set-up: regimen Single, gender Male, age 6 weeks
Details: in vivo, po, 0 mg/kg, route gavage, dose level Control; for APTT / Bas / Eos / Fbg / Hb / Ht / Lym / MCH / MCHC / MCV / Mono / Neu / PT / Plat / RBC / Ret / WBC: tissue Blood; for KIDNEY_L / KIDNEY_R / KIDNEY_TOTAL: tissue Kidney; for LIVER: tissue Liver; for A/G / ALP / ALT / AST / BUN / CRE / Ca / Cl / DBIL / GLC / IP / K / LDH / Na / PL / RALB / TBIL / TC / TG / TP / gamma-GTP: tissue Plasma

## CCCNC(=O)NS(=O)(=O)c1ccc(Cl)cc1 [CHLORPROPAMIDE]
3 h
  TERMINAL_BW: 199.1 g
  APTT: 16.5 s
  Bas: 0.4%
  Eos: 1%
  Fbg: 290 mg/dL
  Hb: 13.3 g/dL
  Ht: 40.3%
  Lym: 76.2%
  MCH: 21.1 pg
  MCHC: 32.9%
  MCV: 64.1 fL
  Mono: 3.4%
  Neu: 17.8%
  PT: 15.6 s
  Plat: 118.9 x10_4/uL
  RBC: 629.8 x10_4/ul
  Ret: 8.9%
  WBC: 85.4 x10_2/uL
  KIDNEY_L: 0.9 g
  KIDNEY_R: 0.9 g
  KIDNEY_TOTAL: 1.8 g
  LIVER: 8.8 g
  A/G: 0.9
  ALP: 1444 IU/L
  ALT: 43.6 IU/L
  AST: 75.8 IU/L
  BUN: 10.4 mg/dL
  CRE: 0.2 mg/dL
  Ca: 10.9 mg/dL
  Cl: 106 meq/L
  DBIL: 0.01 mg/dL
  GLC: 176.6 mg/dL
  IP: 8.9 mg/dL
  K: 4.3 meq/L
  LDH: 89 IU/L
  Na: 142.2 meq/L
  PL: 137.8 mg/dL
  RALB: 2.5 g/dL
  TBIL: 0.04 mg/dL
  TC: 80.2 mg/dL
  TG: 53.8 mg/dL
  TP: 5.4 g/dL
  gamma-GTP: 1.4 IU/L
6 h
  TERMINAL_BW: 194.7 g
  APTT: 18.3 s
  Bas: 0.2%
  Eos: 1%
  Fbg: 308.8 mg/dL
  Hb: 13.2 g/dL
  Ht: 40.5%
  Lym: 71.2%
  MCH: 21 pg
  MCHC: 32.6%
  MCV: 64.3 fL
  Mono: 3%
  Neu: 23.8%
  PT: 15.4 s
  Plat: 108.8 x10_4/uL
  RBC: 630.6 x10_4/ul
  Ret: 9.2%
  WBC: 85.6 x10_2/uL
  KIDNEY_L: 0.9 g
  KIDNEY_R: 0.9 g
  KIDNEY_TOTAL: 1.7 g
  LIVER: 8.2 g
  A/G: 0.9
  ALP: 1385.6 IU/L
  ALT: 42.4 IU/L
  AST: 74.4 IU/L
  BUN: 9.4 mg/dL
  CRE: 0.2 mg/dL
  Ca: 10.7 mg/dL
  Cl: 106 meq/L
  DBIL: 0.01 mg/dL
  GLC: 174 mg/dL
  IP: 9.8 mg/dL
  K: 4.2 meq/L
  LDH: 63.6 IU/L
  Na: 143 meq/L
  PL: 153.4 mg/dL
  RALB: 2.5 g/dL
  TBIL: 0.046 mg/dL
  TC: 90.6 mg/dL
  TG: 50.6 mg/dL
  TP: 5.4 g/dL
  gamma-GTP: 1 IU/L
9 h
  TERMINAL_BW: 194.8 g
  APTT: 18.5 s
  Bas: 0%
  Eos: 0.8%
  Fbg: 294.6 mg/dL
  Hb: 12.9 g/dL
  Ht: 39.6%
  Lym: 74.4%
  MCH: 21.3 pg
  MCHC: 32.8%
  MCV: 65.1 fL
  Mono: 2.2%
  Neu: 21%
  PT: 15.4 s
  Plat: 119.1 x10_4/uL
  RBC: 607.8 x10_4/ul
  Ret: 9.1%
  WBC: 91.1 x10_2/uL
  KIDNEY_L: 0.9 g
  KIDNEY_R: 0.9 g
  KIDNEY_TOTAL: 1.8 g
  LIVER: 7.6 g
  A/G: 0.9
  ALP: 1410 IU/L
  ALT: 42 IU/L
  AST: 74.6 IU/L
  BUN: 8.4 mg/dL
  CRE: 0.2 mg/dL
  Ca: 10.6 mg/dL
  Cl: 106.8 meq/L
  DBIL: 0.006 mg/dL
  GLC: 165.4 mg/dL
  IP: 10 mg/dL
  K: 3.9 meq/L
  LDH: 63.6 IU/L
  Na: 142.8 meq/L
  PL: 136.6 mg/dL
  RALB: 2.5 g/dL
  TBIL: 0.052 mg/dL
  TC: 84.4 mg/dL
  TG: 41.4 mg/dL
  TP: 5.4 g/dL
  gamma-GTP: 1 IU/L
24 h
  TERMINAL_BW: 211.4 g
  APTT: 16.9 s
  Bas: 0.2%
  Eos: 0.8%
  Fbg: 277.8 mg/dL
  Hb: 13 g/dL
  Ht: 40.6%
  Lym: 80%
  MCH: 21.7 pg
  MCHC: 32.2%
  MCV: 67.3 fL
  Mono: 2.8%
  Neu: 15%
  PT: 15.5 s
  Plat: 117.6 x10_4/uL
  RBC: 602.6 x10_4/ul
  Ret: 9.2%
  WBC: 102.7 x10_2/uL
  KIDNEY_L: 0.9 g
  KIDNEY_R: 0.9 g
  KIDNEY_TOTAL: 1.9 g
  LIVER: 10.1 g
  A/G: 0.8
  ALP: 1569 IU/L
  ALT: 44.8 IU/L
  AST: 71.8 IU/L
  BUN: 14.6 mg/dL
  CRE: 0.2 mg/dL
  Ca: 10.9 mg/dL
  Cl: 105.4 meq/L
  DBIL: 0.012 mg/dL
  GLC: 187 mg/dL
  IP: 8.5 mg/dL
  K: 4.2 meq/L
  LDH: 79.4 IU/L
  Na: 142.6 meq/L
  PL: 154 mg/dL
  RALB: 2.6 g/dL
  TBIL: 0.034 mg/dL
  TC: 82.6 mg/dL
  TG: 108.6 mg/dL
  TP: 5.6 g/dL
  gamma-GTP: 1 IU/L
